Source: patent US20160333419A1, “GENE SIGNATURES ASSOCIATED WITH SENSITIVITY TO MDM2 INHIBITORS” (DAIICHI SANKYO COMPANY, LIMITED, priority 2014, published 2016)

Experiments:
Test in all cases: OncoPanel cytotoxicity assay
Type in all cases: cell-based
DOHH-2 = conditions: Homo sapiens, 72 hour incubation
Method in brief: (§1)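 Cells grown in RPMI 1640 with 10% FBS (or a special medium) at 37° C, 5% CO2 were treated 24 hours after seeding for 72 hours with 10 concentrations (3.16-fold dilutions, 0.1% DMSO final). Nuclei were dye-stained and imaged; IC50 was fit from percent of control relative cell count.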

MX1 = conditions: Homo sapiens, 72 hour incubation
Method in brief: as §1

AsPC-1 = conditions: Homo sapiens, ASPC1, 72 hour incubation
Method in brief: as §1

Capan-2 = conditions: Homo sapiens, 72 hour incubation
Method in brief: as §1

U2OS = conditions: Homo sapiens, 72 hour incubation
Method in brief: as §1

SK-N-FI = conditions: Homo sapiens, 72 hour incubation
Method in brief: as §1

KATO III = conditions: Homo sapiens, 72 hour incubation
Method in brief: as §1

Ramos (RA 1) = conditions: Homo sapiens, 72 hour incubation
Method in brief: as §1

769-P = conditions: Homo sapiens, 72 hour incubation
Method in brief: as §1

RPMI-7951 = conditions: Homo sapiens, 72 hour incubation
Method in brief: as §1

G-402 = conditions: Homo sapiens, 72 hour incubation
Method in brief: as §1

SH-4 = conditions: Homo sapiens, 72 hour incubation
Method in brief: as §1

ARH-77 = conditions: Homo sapiens, 72 hour incubation
Method in brief: as §1

SHP-77 = conditions: Homo sapiens, SHP77, 72 hour incubation
Method in brief: as §1

J82 = conditions: Homo sapiens, 72 hour incubation
Method in brief: as §1

HUH-6 Clone 5 = conditions: Homo sapiens, HUH-6-clone5, 72 hour incubation
Method in brief: as §1

BM-1604 = conditions: Homo sapiens, 72 hour incubation
Method in brief: as §1

SW1463 = conditions: Homo sapiens, 72 hour incubation
Method in brief: as §1

NCI-H292 = conditions: Homo sapiens, 72 hour incubation
Method in brief: as §1

FaDu = conditions: Homo sapiens, 72 hour incubation
Method in brief: as §1

Mia PaCa-2 = conditions: Homo sapiens, 72 hour incubation
Method in brief: as §1

MeWo = conditions: Homo sapiens, 72 hour incubation
Method in brief: as §1

MG-63 = conditions: Homo sapiens, 72 hour incubation
Method in brief: as §1

K562 = conditions: Homo sapiens, 72 hour incubation
Method in brief: as §1

LS-174T = conditions: Homo sapiens, LS174T, 72 hour incubation
Method in brief: as §1

BFTC-905 = conditions: Homo sapiens, 72 hour incubation
Method in brief: as §1

AN3 CA = conditions: Homo sapiens, 72 hour incubation
Method in brief: as §1

Hs 294T = conditions: Homo sapiens, 72 hour incubation
Method in brief: as §1

BV-173 = conditions: Homo sapiens, 72 hour incubation
Method in brief: as §1

HuP-T4 = conditions: Homo sapiens, 72 hour incubation
Method in brief: as §1

HOS = conditions: Homo sapiens, 72 hour incubation
Method in brief: as §1

HT-3 = conditions: Homo sapiens, 72 hour incubation
Method in brief: as §1

C-33A = conditions: Homo sapiens, 72 hour incubation
Method in brief: as §1

T98G = conditions: Homo sapiens, 72 hour incubation
Method in brief: as §1

SW684 = conditions: Homo sapiens, 72 hour incubation
Method in brief: as §1

SW480 = conditions: Homo sapiens, 72 hour incubation
Method in brief: as §1

LS1034 = conditions: Homo sapiens, LS-1034, 72 hour incubation
Method in brief: as §1

RKO = conditions: Homo sapiens, 72 hour incubation
Method in brief: as §1

MES-SA = conditions: Homo sapiens, 72 hour incubation
Method in brief: as §1

SK-NEP-1 = conditions: Homo sapiens, 72 hour incubation
Method in brief: as §1

Row | SMILES | IC50 (DOHH-2) [µM] | IC50 (MX1) [µM] | IC50 (AsPC-1) [µM] | IC50 (Capan-2) [µM] | IC50 (U2OS) [µM] | IC50 (SK-N-FI) [µM] | IC50 (KATO III) [µM] | IC50 (Ramos (RA 1)) [µM] | IC50 (769-P) [µM] | IC50 (RPMI-7951) [µM] | IC50 (G-402) [µM] | IC50 (SH-4) [µM] | IC50 (ARH-77) [µM] | IC50 (SHP-77) [µM] | IC50 (J82) [µM] | IC50 (HUH-6 Clone 5) [µM] | IC50 (BM-1604) [µM] | IC50 (SW1463) [µM] | IC50 (NCI-H292) [µM] | IC50 (FaDu) [µM] | other results
1 | CC[C@@H]1CNC2(CC2)CN1C(=O)[C@@H]1C[C@@H](F)CN1C(=O)C1=C(C(C)C)N2C(=N[C@@](C)(c3ccc(Cl)nc3)[C@H]2c2ccc(Cl)c(F)c2)S1 [Compound A, [(5R,6S)-5-(4-Chloro-3-fluorophenyl)-6-(6-chloropyridin-3-yl)-6-methyl-3-(propan-2-yl)-5,6-dihydroimidazo[2,1-b][1,3]thiazol-2-yl][(2S,4R)-2-{[(6R)-6-ethyl-4,7-diazaspiro[2.5]oct-7-yl]carbonyl}-4-fluoropyrrolidin-1-yl]methanone] | 0.123 | 39 | > 40 | > 40 | 1.24 | > 40 | 36.6 | > 40 | 0.442 | > 40 | 0.568 | 0.59 | > 40 | > 40 | > 40 | 0.329 | > 40 | > 40 | 0.479 | > 40 | IC50 (Mia PaCa-2): > 40 µM; IC50 (MeWo): > 40 µM; IC50 (MG-63): > 40 µM; IC50 (K562): > 40 µM; IC50 (LS-174T): 0.497 µM; IC50 (BFTC-905): > 40 µM; IC50 (AN3 CA): > 40 µM; IC50 (Hs 294T): 1.23 µM; IC50 (BV-173): 0.601 µM; IC50 (HuP-T4): > 40 µM; IC50 (HOS): > 40 µM; IC50 (HT-3): > 40 µM; IC50 (C-33A): > 40 µM; IC50 (T98G): > 40 µM; IC50 (SW684): > 40 µM; IC50 (SW480): > 40 µM; IC50 (LS1034): > 40 µM; IC50 (RKO): 0.654 µM; IC50 (MES-SA): 0.529 µM; IC50 (SK-NEP-1): > 40 µM
2 | CC1(C)CCC2(CC1)N[C@@H](C(=O)N[C@@H]1CC[C@@H](C(N)=O)OC1)[C@H](c1ccnc(Cl)c1F)[C@]21C(=O)Nc2cc(Cl)ccc21 [Compound B, (3′R,4′S,5′R)—N-[(3R,6S)-6-carbamoyltetrahydro-2H-pyran-3-yl]-6″-chloro-4′-(2-chloro-3-fluoropyridin-4-yl)-4,4-dimethyl-2″-oxo-1″,2″-dihydrodispiro[cyclohexane-1,2′-pyrrolidine-3′,3″-indole]-5′-carboxamide] | 0.0288 | 9.16 | > 10 | > 10 | 0.248 | > 10 | > 10 | 8.66 | 0.036 | 8.63 | 0.0261 | 0.116 | 7.61 | 8.32 | > 10 | 0.0719 | > 10 | > 10 | 0.0347 | > 10 | IC50 (Mia PaCa-2): 7.22 µM; IC50 (MeWo): > 10 µM; IC50 (MG-63): > 10 µM; IC50 (K562): > 10 µM; IC50 (LS-174T): 0.0615 µM; IC50 (BFTC-905): 8.51 µM; IC50 (AN3 CA): 8.75 µM; IC50 (Hs 294T): 3.24 µM; IC50 (BV-173): 0.0873 µM; IC50 (HuP-T4): > 10 µM; IC50 (HOS): > 10 µM; IC50 (HT-3): > 10 µM; IC50 (C-33A): 5.49 µM; IC50 (T98G): > 10 µM; IC50 (SW684): > 10 µM; IC50 (SW480): > 10 µM; IC50 (LS1034): > 10 µM; IC50 (RKO): 0.107 µM; IC50 (MES-SA): 0.0641 µM; IC50 (SK-NEP-1): > 10 µM
